# Active and inactive are the calls of the source. The rule behind the calls is not given here.
# Columns and labels:
# HepG2 [1] = test: Antiproliferative activity against human HepG2 cells at 25 uM after 48 hrs by MTT assay; format: functional
# HepG2 [2] = test: Antiproliferative activity against human HepG2 cells at 6.25 uM after 24 hrs by MTT assay; format: functional
# HepG2 [3] = test: Antiproliferative activity against human HepG2 cells at 6.25 uM after 48 hrs by MTT assay; format: functional
# HepG2 [4] = test: Antiproliferative activity against human HepG2 cells at 12.5 uM after 48 hrs by MTT assay; format: functional
# HepG2 [5] = test: Antiproliferative activity against human HepG2 cells at 25 uM after 24 hrs by MTT assay; format: functional
# HepG2 [6] = test: Antiproliferative activity against human HepG2 cells at 6.25 to 50 uM after 24 hrs by MTT assay; format: functional, cell-based
# HepG2 [7] = test: Antiproliferative activity against human HepG2 cells at 6.25 to 50 uM after 48 hrs by MTT assay; format: functional, cell-based
compound,measurement,setting,value
C[C@@H]1O[C@@H](O[C@@H]2[C@@H](O)[C@H](O)[C@@H](CO)O[C@H]2c2c(O)cc3oc(-c4ccc(O)c(O)c4)cc(=O)c3c2O)[C@H](O)[C@H](O)[C@H]1O,Activity,HepG2 [1],74.9%
O=c1cc(-c2ccc(O)c(O)c2)oc2cc(O)c([C@@H]3O[C@H](CO)[C@@H](O)[C@H](O)[C@H]3O)c(O)c12 [ISOORIENTIN],Activity,HepG2 [2],19.6%
same,Activity,HepG2 [3],84%
same,Activity,HepG2 [4],92%
same,Activity,HepG2 [5],26.1%
O=C1C[C@@H](c2ccc(O)cc2)Oc2c1c(O)cc(O[C@@H]1O[C@H](CO)[C@@H](O)[C@H](O)[C@H]1O)c2[C@@H]1OC[C@H](O)[C@H](O)[C@H]1O,Activity,HepG2 [6],inactive
C[C@@H]1O[C@@H](O[C@@H]2[C@@H](O)[C@@H](O)CO[C@H]2c2c(O)cc3oc(-c4ccc(O)c(O)c4)cc(=O)c3c2O)[C@H](O)[C@H](O)[C@H]1O,Activity,HepG2 [7],Active

# — ChEMBL document CHEMBL1649353, “Spectroscopic characterization and antiproliferative activity on HepG2 human hepatoblastoma cells of flavonoid C-glycosides from Petrorhagia velutina” (2010)
